Patent publication US6747009B2, “Peptidomimetic glutathione analogs” (Universiteit Leiden, priority 2002, dated 2004)
Numbered stars: 1 amine (or outer) side, 2 acyl side, 3 side chain; on linkers, the order of the positions; unused ones are H or OH. Square brackets hold non-standard residues; d marks the D form. Peptide text beside a SMILES is read from it. * marks the point of attachment. ξ: configuration not given here. γGlu = O=C(O)[C@H](CCC(=O)[*:2])N[*:1]; ξPhg = NC(C(=O)O)c1ccccc1; Bn = c1ccc(C*)cc1

How the values were obtained:
[1] = biological target: T1, human GSTP1-1 (Homo sapiens, UniProt P09211); experiment: GST inhibition assay (CDNB conjugation), Ki and % inhibition; format: biochemical; details: for inhibition at 50 µM: 1 mM GSH, 1 mM CDNB, 50 μM inhibitor, relative to non-inhibited rate
T1 construct: purchased PanVers Corporation (Madison, Wis., USA)
T1 sequence (P09211 2-210 limits assumed): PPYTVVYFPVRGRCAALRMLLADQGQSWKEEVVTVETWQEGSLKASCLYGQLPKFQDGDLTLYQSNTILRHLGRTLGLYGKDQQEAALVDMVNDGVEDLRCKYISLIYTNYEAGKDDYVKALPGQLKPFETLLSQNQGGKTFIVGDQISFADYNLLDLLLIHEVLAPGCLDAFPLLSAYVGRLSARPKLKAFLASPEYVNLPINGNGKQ
Protocol: (§1) Human recombinant GST isoenzymes A1-1, M1-1 and P1-1 were used for the GST inhibition assays. Experiments were performed according to Habig et al; (1974), J. Biol. Chem. 249, 7130-7139, modified for a 96-wells plate-reader assay. The purified human GST isoenzymes (10-20 ng/ml) were incubated with or without inhibitor (50 μM) in the presence of 8 different concentrations (50 μM-4 mM) GSH at 37° C. in 0.1 M potassium phosphate buffer pH 6.5/1 mM EDTA. The reaction was initiated by addition of CDNB in ethanol (final concentration 1 mM, 1% ethanol in assay mix), after which the formation of GS-DNB was spectrophotometrically monitored at 340 nm. Reaction rates were corrected for the non-enzymatic conjugate formation. Kt values (table 1) were determined using the Km, app method according to Kakkar et al. (1999), Drug Metab. Dispos. 27, 756-762; Kakkar et al. (2000), J. Pharmacol. Exp. Ther. 293, 861-869. Experiments were performed three times with quadruple measurements.

[2] = biological target: T2, human GSTA1-1 (Homo sapiens, UniProt P08263); experiment: GST inhibition assay (CDNB conjugation), Ki determination; format: biochemical; details: human recombinant GSTA1-1; ± SD; 50 μM inhibitor, 50 μM-4 mM GSH, 1 mM CDNB, pH 6.5
T2 construct: purchased PanVers Corporation (Madison, Wis., USA)
T2 sequence (P08263 1-222): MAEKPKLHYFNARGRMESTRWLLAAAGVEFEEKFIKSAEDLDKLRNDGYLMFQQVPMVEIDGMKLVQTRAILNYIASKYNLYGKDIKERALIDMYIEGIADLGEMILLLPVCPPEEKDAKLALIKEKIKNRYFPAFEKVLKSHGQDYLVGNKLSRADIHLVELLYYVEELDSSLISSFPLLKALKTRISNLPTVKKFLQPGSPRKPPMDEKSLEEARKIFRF
Protocol: as §1

[3] = biological target: T3, human GSTM1-1 (Homo sapiens, UniProt P09488); experiment: as above; format: biochemical; details: human recombinant GSTM1-1; ± SD; 50 μM inhibitor, 50 μM-4 mM GSH, 1 mM CDNB, pH 6.5
T3 construct: purchased PanVers Corporation (Madison, Wis., USA)
T3 sequence (P09488 2-218 limits assumed): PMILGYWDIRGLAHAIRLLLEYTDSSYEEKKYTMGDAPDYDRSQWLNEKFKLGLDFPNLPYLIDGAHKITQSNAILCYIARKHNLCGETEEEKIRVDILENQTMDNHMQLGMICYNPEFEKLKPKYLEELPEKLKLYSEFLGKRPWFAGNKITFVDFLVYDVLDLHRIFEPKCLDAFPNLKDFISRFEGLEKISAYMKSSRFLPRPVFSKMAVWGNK
Protocol: as §1

[4] = test system: bovine kidney γ-glutamyl transpeptidase; experiment: Stability towards γ-glutamyl transpeptidase (RP-HPLC disappearance of parent); format: in vitro ADME; details: pH 7.4
Protocol: Peptide isosteres were incubated with 0.25 mg/ml bovine γ-glutamyltranspeptidase in 0.1M Tris-HCl buffer pH=7.4. At the appropriate time-point a sample (100 μL) was taken, heat inactivated and stored on ice until HPLC analysis. Disappearance of the indicated compounds was determined by RP-HPLC. Open markers indicate γGT sensitive compounds, closed markers are γGT stabilized.
The rate of degradation was determined by incubating 250 μM of GluPhg-Benzyl, RedPhg-Benzyl and UtPhg-Benzyl at 37° C. with 0.25 mg/ml bovine kidney γ-glutamyl transpeptidase in 0.1 M Tri-HCl buffer, pH 7.4, supplemented with 0.1 mM EDTA. At selected time-intervals, a 100 μL sample was taken, heat-inactivated, and stored on ice until HPLC-analysis. Analysis was performed by RP-HPLC on an Altech Platinum C18 column, using 50 mM ammonium acetate buffer pH 3.8, supplemented with 10-20% acetonitrile (optimized for the various peptide analogues) as eluent. Disappearance of the parent peak was determined by UV absorbency at […]. Remaining percentage of the parent compounds was determined as ratio of peak areas relative to the initial (t=0min) value.
The rate of degradation was determined by incubating 250 μM of the GS-EA analogues at 37° C. with 0.25 mg/ml bovine kidney γ-glutamyltranspeptidase in 0.1M Tris-HCl buffer, pH=7.4, supplemented with 0.1mM EDTA. At selected time-intervals, a 100 μL sample was taken, heat-inactivated, and stored on ice until HPLC-analysis. Analysis was performed by RP-HPLC on an Alltech Platinum C18 column, using 50mM ammonium acetate buffer pH=3.8, supplemented with 10-20% acetonitrile (optimized for the various peptide analogues) as eluent. Disappearance of the […] peak and emergence of the corresponding dipeptide-EA conjugate was detected by UV absorbency at 270 nm. Remaining percentage of the parent compounds was determined as ratio of peak areas relative to the initial (t=0 min) value. Results were corrected for non-peptidase mediated degradation of the ethacrynic acid conjugates.

[5] = test system: rat liver cytosolic GSTs (S100); experiment: Inhibition of rat liver cytosolic GSTs (S100), CDNB conjugation; format: biochemical; details: S100, 1 mM GSH, 1 mM CDNB, pH 6.5, six inhibitor concentrations
Protocol: Inhibition of GST mediated CDNB-conjugation was tested at pH=6.5, in the presence of non-limiting concentrations of GSH (1 mM) and CDNB (1 mM). The shown data are averages of three separate determinations. For clarity, error-bars were not included. […] Open markers with dotted lines indicate γGT sensitive compounds, closed markers with closed lines are γGT stabilized structures.
Freshly isolated rat livers were emulsified in 0.1M KCl using a Potter-Elvehjem homogeniser. After initial centrifugation for 30 minutes at 9000 g, the resulting supernatant was subjected to a second centrifugation for 75 minutes at 10^5 g. The cytosolic protein containing supernatant (S100) was used for the GST inhibition experiments. GST inhibition experiments were performed. All solutions were kept on ice until use. Various concentrations of the inhibitions were incubated at 37° C. with rat liver cytosol (1 μl, containing […] of total protein) in sodium-phosphate buffer, pH 6.5, supplemented with 0.1 mM EDTA and 1 mM GSH. Reaction was started by adding 4 μL CDNB in ethanol (final concentration=1 mM, maximal ethanol content=2% v/v). Formation of the GS-CDNB conjugate was followed at 340 nm for 5 minutes. Initial reaction velocities were corrected for the spontaneous (not GST catalyzed) reaction rates. Inhibition was determined as percentage of the non-inhibited reaction rate. Experiments were performed three times with duplicate measurements.
GST inhibition was tested at six concentrations of the GS-EA mimics.

[6] = test system: JNK in MTLn3 cells; experiment: JNK activation (phospho-JNK immunoblot); format: cell-based; details: MTLn3/Neo and MTLn3/GSTπ; 50 μM Et2-RP-Bzl, Et2-UrP-Bzl or 20 μM TER199; 8 hours
Protocol: Confluent monolayers of VCREMS, MTLn3/Neo (3 clones) and MTLn3/GSTπ (3 clones) cells in 12-well culture dishes were exposed for 8 or 16 hours to 50 μM of Et2-RP-Bzl, Et2-UrP-Bzl or 20 μM TER199 (all di-ethyl esters) in full medium at 37° C. Cells were then washed and subsequently scraped in ice-cold PBS. For MTLn3 cells, suspensions of the three different neo and three different GSTπ clones were combined. After centrifugation (10 min, 250 g, 4° C.), the cells were lysed by ultrasonication in cold TSB (10 mM Tris, 250 mM sucrose, 1 mM EGTA, pH 7.4), containing protease inhibitors (50 mM Na3VO4, 10 μg/ml leupeptin, 10 μg/ml pepstain, 1 mM phenylmethylsulfonylfuloride). Protein concentration was determined using the Bradford protein assay, using IgG as a standard.
For GSTπ blotting, non-reducing and non-denaturing conditions were used to keep GSTP in its original (homodimer) state. JNK blots were subjected to standard Western blotting sample pre-treatment protocols. Twenty micrograms of total cellular protein was separated by SDS-polyacrylamide gel electrophoresis and subsequently transferred to polyvinylidene difluoride membrane (Millipore). […] Active JNK was detected by an alkaline phosphatase coupled goat antibody, which was visualized with the Tropix kit (PerkinElmer Life Sciences).

[7] = test system: MTLn3/Neo cells; experiment: Modulation of thiotepa cytotoxicity (cell proliferation by DNA content); format: cell-based; details: read-out: IC50 value of thiotepa, No Inh
Protocol: (§2) Cells (MCF7, VCREMS, 3 MTLn3/neo clones and 3 MTLn3/GSTP1-1 clones) were seeded at 10^4 cells/well in 24-wells polyethylene culture dishes. […] Various concentrations (3 μM-10 mM) of thiotepa (in serum-free medium) were added. After 4 hrs at 37° C., cells were washed twice with PBS, and subsequently incubated for 72 hours in culture medium (in absence of inhibitor). The cells were then rinsed once with BPS and lysed by repeated freeze-thaw cycles in 200 μl water, followed by homogenization on a rotary shaker. […] Stained DNA was measured by spectrofluorometry (excitation: 360 nm, emission 465 nm). A calibration curve of calf thymus DNA was used to determine total DNA quantities. Growth curves were calculated using the IC50 module of the enzyme kinetics program Grafit (version 3.0, Erithacus Software Ltd.).

[8] = test system: MCF7 cells; experiment: as above; format: cell-based; details: Homo sapiens, MCF7, read-out: IC50 value of thiotepa, No Inh
Protocol: as §2

[9] = test system: MTLn3/GSTπ cells; experiment: as above; format: cell-based; details: read-out: IC50 value of thiotepa, No Inh
Protocol: as §2

[10] = test system: VCREMS cells; experiment: as above; format: cell-based; details: read-out: IC50 value of thiotepa, No Inh
Protocol: as §2

[11] = 250 μM compound, 0.25 mg/ml bovine kidney γGT, 37° C.

## N[C@@H](CCC(=O)N[C@@H](CSCc1ccccc1)C(=O)NC(C(=O)O)c1ccccc1)C(=O)O (stereo partly drawn) [GluPhg-Benzyl (I), γ-L-glutamyl-L-cysteinyl(benzyl)-D-phenylglycine, reference compound] (γGlu-Cys(Bn)-[ξPhg]-OH)
[1]
  Ki: 0.8 ± 0.3 µM
[2]
  Ki: 23 ± 6 µM
[3]
  Ki: 21 ± 4 µM

## CCC(CSC[C@H](NC(=O)CC[C@H](N)C(=O)O)C(=O)NCC(=O)O)C(=O)c1ccc(OCC(=O)O)c(Cl)c1Cl (stereo partly shown) [I, γ-Glu[Cys(EA)-Gly-OH]—OH, reference compound]
[4]; [11]
  stability towards γGT (in words): cleaved rapidly
  time to complete degradation of the GSH backbone by γGT: ≤ 20 min

## CN(C(=O)CC[C@H](N)C(=O)O)[C@@H](CS)C(=O)NCC(=O)O [III, γ-Glu[MeCys-Gly-OH]—OH]
[5]
  inhibition of rat liver cytosolic GSTs (in words): a decrease in inhibition was seen

## N[C@@H](CCCN[C@@H](CSCc1ccccc1)C(=O)NC(C(=O)O)c1ccccc1)C(=O)O (stereo partly shown) [RedPhg-Benzyl (II)]
[1]
  Ki: 6 ± 3 µM
  inhibition at 50 µM: 81%
[2]
  Ki: 55 ± 11 µM
[3]
  Ki: 29 ± 6 µM

## CCOC(=O)[C@@H](N)CCC(=O)N[C@@H](CSCc1ccccc1)C(=O)N[C@@H](C(=O)OCC)c1ccccc1 [TER199]
[6]
  phospho-JNK (JNK1, JNK2) formation: a small band appeared just below the 54 kDa active JNK2 band

## N[C@@H](COC(=O)N[C@@H](CSCc1ccccc1)C(=O)NC(C(=O)O)c1ccccc1)C(=O)O (stereo partly shown) [UrPhg-Benzyl (III), H-Glo[Cys(Bzl)-Phg-OH]-OH]
[1]
  Ki: 3 ± 2 µM
  inhibition at 50 µM: 93%
[2]
  Ki: 29 ± 4 µM
[3]
  Ki: 16 ± 2 µM

## S=P(N1CC1)(N1CC1)N1CC1 [thiotepa]
[7]
  IC50: 164 ± 9 µM
[8]
  IC50: 699 ± 50 µM
[9]
  IC50: 219 ± 21 µM
[10]
  IC50: 2840 ± 1100 µM

## H-Glo[Cys(EA)-Gly-OH]—OH [VI]
[5]
  inhibition of rat liver cytosolic GSTs (in words): efficient γGT stable inhibitors

## H-Glu[Ψ(CH2NH)-Cys(EA)-Gly-OH]—OH [V]
[5]
  inhibition of rat liver cytosolic GSTs (in words): efficient γGT stable inhibitors

## γ-Glu[2-amino-1-mercapto(S-EA)-6-hexanoic acid]-OH [IV]
[4]; [11]
  stability towards γGT (in words): very sensitive towards γGT mediated cleavage
[5]
  inhibition of rat liver cytosolic GSTs (in words): poor inhibitor of cytosolic GSTs

## γ-Glu[Cys(EA)-Src-OH]—OH [II]
[4]
  t½ of γGT mediated hydrolysis: approximately equal to the half-life of GS-EA
[5]
  inhibition of rat liver cytosolic GSTs (in words): comparable inhibition pattern to compound I
